Reference: patent publication US8685977B2, “Chemical compounds” (Pfizer Limited, priority 2010, dated 2014)

Target: T1, Nav1.7 (or SCN9A) channel (Homo sapiens, UniProt Q15858)
T1 construct: expressed in transfected cells
Assay: Nav1.7 PatchXpress 7000 automated electrophysiology assay (HEK cells stably expressing hSCN9A)
Assay type: cell-based
Settings: voltage-clamped at V1/2 of inactivation, read-out: Nav1.7 EIC50
Outline: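 Automated whole-cell clamp (PatchXpress) of HEK cells stably expressing hSCN9A, at 22-24 °C, in extracellular buffer at pH 7.4. Cells were held at the measured V1/2 of inactivation, then stepped to 0 mV for 20 ms. Single-concentration % inhibition gave EIC50 = concentration × (100 − %inhibition)/%inhibition, excluding <20% or >80%.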

T1 sequence (Q15858 whole entry): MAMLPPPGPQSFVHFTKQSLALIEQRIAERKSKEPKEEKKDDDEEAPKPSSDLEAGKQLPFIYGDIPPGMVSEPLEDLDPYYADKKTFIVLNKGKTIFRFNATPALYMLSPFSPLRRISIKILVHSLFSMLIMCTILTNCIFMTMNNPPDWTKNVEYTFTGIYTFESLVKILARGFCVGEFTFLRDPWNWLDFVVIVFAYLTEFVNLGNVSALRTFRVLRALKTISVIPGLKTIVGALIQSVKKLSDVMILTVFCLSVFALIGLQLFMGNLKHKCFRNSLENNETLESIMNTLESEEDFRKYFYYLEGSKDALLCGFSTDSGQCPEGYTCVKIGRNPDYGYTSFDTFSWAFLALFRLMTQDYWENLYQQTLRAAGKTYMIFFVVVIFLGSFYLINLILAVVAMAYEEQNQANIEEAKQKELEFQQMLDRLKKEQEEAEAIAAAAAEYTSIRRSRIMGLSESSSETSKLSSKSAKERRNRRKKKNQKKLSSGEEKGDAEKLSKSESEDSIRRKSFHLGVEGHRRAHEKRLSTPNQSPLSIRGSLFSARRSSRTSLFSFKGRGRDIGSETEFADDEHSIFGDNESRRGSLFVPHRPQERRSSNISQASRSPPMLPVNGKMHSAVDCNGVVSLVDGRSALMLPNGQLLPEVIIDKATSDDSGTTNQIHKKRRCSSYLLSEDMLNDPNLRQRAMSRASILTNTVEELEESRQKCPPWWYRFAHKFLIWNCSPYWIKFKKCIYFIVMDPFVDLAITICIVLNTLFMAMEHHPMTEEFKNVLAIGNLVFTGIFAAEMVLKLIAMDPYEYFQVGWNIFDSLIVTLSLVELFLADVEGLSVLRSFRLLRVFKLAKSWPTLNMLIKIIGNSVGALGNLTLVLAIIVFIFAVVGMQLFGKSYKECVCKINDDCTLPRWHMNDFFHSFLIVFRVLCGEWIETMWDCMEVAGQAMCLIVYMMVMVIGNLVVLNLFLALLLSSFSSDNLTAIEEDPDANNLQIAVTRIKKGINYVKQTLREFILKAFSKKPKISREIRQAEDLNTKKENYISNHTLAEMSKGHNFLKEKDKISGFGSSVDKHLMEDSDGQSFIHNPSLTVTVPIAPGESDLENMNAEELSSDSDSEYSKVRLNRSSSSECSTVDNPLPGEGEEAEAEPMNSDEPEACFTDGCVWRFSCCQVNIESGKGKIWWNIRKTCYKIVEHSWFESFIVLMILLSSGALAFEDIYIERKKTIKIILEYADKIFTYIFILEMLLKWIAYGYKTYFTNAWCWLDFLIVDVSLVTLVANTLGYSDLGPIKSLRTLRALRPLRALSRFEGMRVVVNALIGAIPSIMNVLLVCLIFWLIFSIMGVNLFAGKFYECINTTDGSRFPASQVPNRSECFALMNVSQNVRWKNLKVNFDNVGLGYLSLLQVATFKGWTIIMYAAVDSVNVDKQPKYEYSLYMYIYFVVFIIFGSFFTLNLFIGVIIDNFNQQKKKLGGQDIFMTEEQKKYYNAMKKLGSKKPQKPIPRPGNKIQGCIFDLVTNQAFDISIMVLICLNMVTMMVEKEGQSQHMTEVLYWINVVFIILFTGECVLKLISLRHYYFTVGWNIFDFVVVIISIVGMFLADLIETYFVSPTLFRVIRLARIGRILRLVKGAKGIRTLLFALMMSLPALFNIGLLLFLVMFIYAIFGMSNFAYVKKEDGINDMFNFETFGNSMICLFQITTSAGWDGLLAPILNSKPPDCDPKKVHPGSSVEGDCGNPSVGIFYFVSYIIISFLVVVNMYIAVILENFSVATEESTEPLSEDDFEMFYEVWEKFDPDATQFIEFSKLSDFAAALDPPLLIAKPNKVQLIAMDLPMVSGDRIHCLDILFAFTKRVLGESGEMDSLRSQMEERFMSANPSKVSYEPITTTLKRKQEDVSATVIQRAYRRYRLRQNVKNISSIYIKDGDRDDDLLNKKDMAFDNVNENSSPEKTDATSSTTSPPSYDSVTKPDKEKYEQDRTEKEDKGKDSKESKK

CS(=O)(=O)NC(=O)c1ccc(Oc2cccc(Cl)c2)cc1 [Example 202, 4-(3-chlorophenoxy)-N-(methylsulfonyl)benzamide] and Cc1cccc(Oc2ccc(C(=O)NS(C)(=O)=O)cc2)c1 [Example 254, 4-(3-methylphenoxy)-N-(methylsulfonyl)benzamide] are within 1.5-fold of each other in IC50: 6900 nM for the first, 7500 nM for the second.

Going from Cc1ccc(Oc2ccc(C(=O)NS(C)(=O)=O)cc2)c(Cl)c1 [Example 203, 4-(2-chloro-4-methylphenoxy)-N-(methylsulfonyl)benzamide] to Cc1ccc(Oc2ccc(C(=O)NS(C)(=O)=O)cc2Cl)cc1 [Example 215, 3-chloro-4-(4-methylphenoxy)-N-(methylsulfonyl)benzamide], the IC50 falls from 25000 nM to 1300 nM (19-fold). The second is the more potent here.

COc1cc(C)cc(Oc2ccc(C(=O)NS(C)(=O)=O)cc2)c1 [Example 204, 4-(3-methoxy-5-methylphenoxy)-N-(methylsulfonyl)benzamide] and Cc1ccc(F)c(Oc2ccc(C(=O)NS(C)(=O)=O)cc2)c1 [Example 205, 4-(2-fluoro-5-methylphenoxy)-N-(methylsulfonyl)benzamide] are within 1.5-fold of each other in IC50: 21000 nM for the first, 15000 nM for the second.

Going from Cc1cc(Cl)ccc1Oc1ccc(C(=O)NS(C)(=O)=O)cc1 [Example 206, 4-(4-chloro-2-methylphenoxy)-N-(methylsulfonyl)benzamide] to Cc1cc(C(=O)NS(C)(=O)=O)ccc1Oc1ccc(Cl)cc1 [Example 240, 4-(4-chlorophenoxy)-3-methyl-N-(methylsulfonyl)benzamide], the IC50 falls from 18000 nM to 630 nM (29-fold).

COc1cc(Oc2cccc(Cl)c2)ccc1C(=O)NS(C)(=O)=O [Example 213, 4-(3-chlorophenoxy)-2-methoxy-N-(methylsulfonyl)benzamide] and COc1cc(Oc2ccc(F)c(Cl)c2)ccc1C(=O)NS(C)(=O)=O [Example 233, 4-(3-chloro-4-fluorophenoxy)-2-methoxy-N-(methylsulfonyl)benzamide] cannot be ordered by IC50: over 3000 nM for the first, 8200 nM for the second.

Going from CS(=O)(=O)NC(=O)c1ccc(Oc2ccc(Cl)cc2)c(Cl)c1 [Example 214, 3-chloro-4-(4-chlorophenoxy)-N-(methylsulfonyl)benzamide] to CS(=O)(=O)NC(=O)c1ccc(Oc2ccc(Cl)cc2)c(F)c1 [Example 229, 4-(4-chlorophenoxy)-3-fluoro-N-(methylsulfonyl)benzamide], the IC50 rises from 220 nM to 1200 nM (5.5-fold). The first is the more potent here.

Going from COc1cc(Oc2ccc(F)c(C)c2)ccc1C(=O)NS(C)(=O)=O [Example 216, 4-(4-fluoro-3-methylphenoxy)-2-methoxy-N-(methylsulfonyl)benzamide] to COc1cc(Oc2ccc(Cl)c(C)c2)ccc1C(=O)NS(C)(=O)=O [Example 231, 4-(4-chloro-3-methylphenoxy)-2-methoxy-N-(methylsulfonyl)benzamide], the IC50 falls from 11000 nM to 3900 nM (2.8-fold).

Compared with Cc1ccc(Oc2ccc(C(=O)NS(C)(=O)=O)cc2F)cc1 [Example 217, 3-fluoro-4-(4-methylphenoxy)-N-(methylsulfonyl)benzamide], Cc1cc(C(=O)NS(C)(=O)=O)ccc1Oc1ccc(F)cc1 [Example 237, 4-(4-fluorophenoxy)-3-methyl-N-(methylsulfonyl)benzamide] is 1.7-fold lower in IC50: 4200 nM for the first, 2500 nM for the second. The second is the more potent here.

Cc1cc(Oc2ccc(C(=O)NS(C)(=O)=O)cc2F)ccc1F [Example 218, 3-fluoro-4-(4-fluoro-3-methylphenoxy)-N-(methylsulfonyl)benzamide] and CS(=O)(=O)NC(=O)c1ccc(Oc2cccc(Cl)c2)c(F)c1 [Example 223, 4-(3-chlorophenoxy)-3-fluoro-N-(methylsulfonyl)benzamide] are within 1.5-fold of each other in IC50: 2800 nM for the first, 2400 nM for the second.

First: CS(=O)(=O)NC(=O)c1ccc(Oc2ccc(Cl)c(F)c2)cc1 [Example 220, 4-(4-chloro-3-fluorophenoxy)-N-(methylsulfonyl)benzamide]
Second: COc1cc(Oc2ccc(Cl)c(F)c2)ccc1C(=O)NS(C)(=O)=O [Example 228, 4-(4-chloro-3-fluorophenoxy)-2-methoxy-N-(methylsulfonyl)benzamide]
The IC50 of the first is 3-fold lower: 1800 nM for the first, 5400 nM for the second. The first is the more potent here.

First: COc1c(C(=O)NS(C)(=O)=O)ccc(Oc2cccc(Cl)c2)c1F [Example 225, 4-(3-chlorophenoxy)-3-fluoro-2-methoxy-N-(methylsulfonyl)benzamide]
Second: COc1c(C(=O)NS(C)(=O)=O)ccc(Oc2ccc(Cl)c(C)c2)c1F [Example 230, 4-(4-chloro-3-methylphenoxy)-3-fluoro-2-methoxy-N-(methylsulfonyl)benzamide]
The IC50 of the first is 3.8-fold higher: 3300 nM for the first, 860 nM for the second. The second is the more potent here.

Going from COc1c(C(=O)NS(C)(=O)=O)ccc(Oc2ccc(Cl)c(Cl)c2)c1F [Example 234, 4-(3,4-dichlorophenoxy)-3-fluoro-2-methoxy-N-(methylsulfonyl)benzamide] to COc1cccc(Oc2ccc(C(=O)NS(C)(=O)=O)cc2Cl)c1 [Example 255, 3-chloro-4-(3-methoxyphenoxy)-N-(methylsulfonyl)benzamide], the IC50 rises from 850 nM to 1400 nM (1.6-fold). The first is the more potent here.

Cc1cc(C(=O)NS(C)(=O)=O)ccc1Oc1cccc(Cl)c1 [Example 238, 4-(3-chlorophenoxy)-3-methyl-N-(methylsulfonyl)benzamide] and Cc1cccc(Oc2ccc(C(=O)NS(C)(=O)=O)cc2Cl)c1 [Example 250, 3-chloro-4-(3-methylphenoxy)-N-(methylsulfonyl)benzamide] are within 1.5-fold of each other in IC50: 960 nM for the first, 1400 nM for the second.

First: CS(=O)(=O)NC(=O)c1ccc(Oc2ccc(-c3ccccc3)cc2)cc1 [Example 245, 4-(biphenyl-4-yloxy)-N-(methylsulfonyl)benzamide]
Second: CCOc1ccc(Oc2ccc(C(=O)NS(C)(=O)=O)cc2)cc1 [Example 253, 4-(4-ethoxyphenoxy)-N-(methylsulfonyl)benzamide]
The IC50 of the first is 1.9-fold lower: 1300 nM for the first, 2500 nM for the second.

First: CS(=O)(=O)NC(=O)c1ccc(Oc2ccc3ccccc3c2)c(Cl)c1 [Example 246, 3-chloro-N-(methylsulfonyl)-4-(2-naphthyloxy)benzamide]
Second: CS(=O)(=O)NC(=O)c1ccc(Oc2cccc3ccccc23)c(Cl)c1 [Example 258, 3-chloro-N-(methylsulfonyl)-4-(1-naphthyloxy)benzamide]
The IC50 of the first is 4.3-fold lower: 490 nM for the first, 2100 nM for the second.

Going from CS(=O)(=O)NC(=O)c1ccc(Oc2ccccc2Cl)c(Cl)c1 [Example 248, 3-chloro-4-(2-chlorophenoxy)-N-(methylsulfonyl)benzamide] to Cc1ccccc1Oc1ccc(C(=O)NS(C)(=O)=O)cc1Cl [Example 256, 3-chloro-4-(2-methylphenoxy)-N-(methylsulfonyl)benzamide], the IC50 rises from 1700 nM to 2800 nM (1.6-fold). The first is the more potent here.

CS(=O)(=O)NC(=O)c1ccc(Oc2ccccc2)c(Cl)c1 [Example 252, 3-chloro-N-(methylsulfonyl)-4-phenoxybenzamide] and CS(=O)(=O)NC(=O)c1ccc(Oc2cccc(F)c2)c(Cl)c1 [Example 262, 3-chloro-4-(3-fluorophenoxy)-N-(methylsulfonyl)benzamide] are within 1.5-fold of each other in IC50: 1200 nM for the first, 1100 nM for the second.

First: COc1ccc(Oc2ccc(C(=O)NS(C)(=O)=O)cc2Cl)cc1 [Example 257, 3-chloro-4-(4-methoxyphenoxy)-N-(methylsulfonyl)benzamide]
Second: CCOc1ccc(Oc2ccc(C(=O)NS(C)(=O)=O)cc2C#N)cc1 [Example 265, 3-cyano-4-(4-ethoxyphenoxy)-N-(methylsulfonyl)benzamide]
The IC50 of the first is 4.4-fold lower: 1100 nM for the first, 4800 nM for the second. The first is the more potent here.

CS(=O)(=O)NC(=O)c1ccc(Oc2cccc(C#N)c2)c(Cl)c1 [Example 264, 3-chloro-4-(3-cyanophenoxy)-N-(methylsulfonyl)benzamide] gave an IC50 of 7000 nM.
